Results as given in PubChem BioAssay AID732 (Emory University Molecular Libraries Screening Center, 2007).
Activity calls are given as the source filed them. No rule for the calls is given here.

Tested on: in vivo angiogenesis, blood vessel count
Assay: angiogenesis inhibition in living animals, in vivo study, HTS (AID 732);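 also: zebrafish embryos dosed at one day post fertilization; 0% = reference inhibitor and 100% = plate mean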
Conditions: hits give low values;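 tested at 30 µM in the well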

| Structure (SMILES) | vessel count % control |
| --- | --- |
| O=[N+]([O-])c1ccc(O[C@@H]2O[C@H](CO)[C@@H](O)[C@H](O)[C@H]2F)c([N+](=O)[O-])c1 | 99.2% (inactive) |
| NCCNC(=O)c1ccc(Cl)cc1 | 106% (inactive) |
| COc1cc(-c2ccc(=O)[nH]n2)ccc1OC(F)F | 75.5% (inactive) |
| C[C@](N)(Cc1ccc(O)cc1)C(=O)O | 116% (inactive) |
| C=CC[C@H](N)C(=O)O | 111% (inactive) |
| C=C(C)[C@H]1CN[C@H](C(=O)O)[C@H]1CC(=O)O | 123% (inactive) |
| CC(C)Cc1ccc(C(C)C(=O)O)cc1 (stereo not given) | 138% (inactive) |
| N[C@@H](CC(=O)O)C(=O)O | 94.7% (inactive) |
| O=C(O)C1=CCCN(CCON=C(c2ccccc2)c2ccccc2)C1 | 104% (inactive) |
| O=C1NCC2(CCN(CCc3ccccc3)CC2)O1 | 110% (inactive) |
| CCSC(=N)N | 62.2% (inactive) |
| C#CCN[C@H](C)Cc1ccccc1 | 114% (inactive) |
| COc1ccc2c(c1)C13CCCCC1C(C2)N(C)CC3 (stereo not given) | 108% (inactive) |
| NC(=O)CNCCC(c1ccccc1)c1ccccc1 | 119% (inactive) |
| Cc1nc(N=Nc2ccc(S(=O)(=O)O)cc2S(=O)(=O)O)c(COP(=O)(O)O)c(C=O)c1O | 110% (inactive) |
| CNC(=O)[C@H]1O[C@@H](n2cnc3c(NCc4cccc(I)c4)ncnc32)C(O)[C@H]1O (stereo not given in full) | 83.3% (inactive) |
| Nc1ncn([C@@H]2O[C@H](CO)[C@@H](O)[C@H]2O)c(=O)n1 | 65.2% (inactive) |
| CN1CCC(=C2c3ccccc3CC(=O)c3sccc32)CC1 | 105% (inactive) |
| C[C@@H]1O[C@@H](O[C@H]2C[C@@H](O)[C@]3(CO)[C@H]4[C@H](O)C[C@]5(C)[C@@H](C6=CC(=O)OC6)CC[C@]5(O)[C@@H]4CC[C@]3(O)C2)[C@H](O)[C@H](O)[C@H]1O | 109% (inactive) |
| NC(=Nc1ccccc1)NC(=O)c1nc(Cl)c(N)nc1N | 104% (inactive) |

| Structure (SMILES) | vessel count % control |
| --- | --- |
| Clc1ccc(N2CC3CCC(C2)N3)nn1 | 106% (inactive) |
| C#CCN1C(C)=C(C(=O)OC)C(c2cccc([N+](=O)[O-])c2)C(C(=O)OCC)=C1C (stereo not given) | 132% (inactive) |
| CC(=O)NBr | 130% (inactive) |
| CCCOC(=O)c1c(-c2ccccc2)nc(CC)c(C(=O)SCC)c1CCC | 98% (inactive) |
| CC(N)=O | 108% (inactive) |
| CC1=C(C(=O)O)N2C(=O)[C@@H](NC(=O)C(N)c3ccccc3)[C@H]2SC1 (stereo not given in full) | 93.6% (inactive) |
| O=c1onc2cnc3ccccc3n12 | 95.4% (inactive) |
| Nc1ccc(CCN2CCN(c3cccc(C(F)(F)F)c3)CC2)cc1 | 96.3% (inactive) |
| O=c1[nH]c2ccccc2n1CCCN1CCC(n2c(=O)[nH]c3cc(Cl)ccc32)CC1 | 83.8% (inactive) |
| N#CC(=Cc1ccc(O)c(O)c1)C(N)=S | 118% (inactive) |
| Nc1nc(SCc2ccc([N+](=O)[O-])cc2)c2ncn([C@@H]3O[C@H](CO)[C@H](O)C3O)c2n1 (stereo not given in full) | 112% (inactive) |
| Oc1ccc(O)cc1 | 128% (inactive) |
| CS(=N)(=O)CC[C@H](N)C(=O)O (stereo not given in full) | 99.4% (inactive) |
| CN[C@@H](C)[C@H](O)c1ccccc1 | 91.4% (inactive) |
| Oc1ccc(C2CNCCc3c2cc(O)c(O)c3Cl)cc1 (stereo not given) | 117% (inactive) |
| c1ccc(C2CC2)c(OCC2=NCCN2)c1 | 104% (inactive) |
| Oc1ccc2c3c1O[C@H]1[C@@H](O)CC[C@@]4(O)C(C2)N(CC2CCC2)CCC314 (stereo not given in full) | 81.2% (inactive) |
| NC(Cc1cc(O)c(O)cc1O)C(=O)O (stereo not given) | 88.2% (inactive) |
| COc1ccc2c(c1OC)C(=O)O[C@H]2[C@@H]1c2cc3c(cc2CCN1C)OCO3 | 116% (inactive) |
| Fc1ccc(C(OCCN2CCN(CCCc3ccccc3)CC2)c2ccc(F)cc2)cc1 | 71.4% (inactive) |
